The text below walks through data of patent publication US20100279976A1, “USE OF ARTEMISININ AND ITS DERIVATIVES IN CANCER THERAPY” (SHANGHAI INSTITUTES FOR BIOLOGICAL SCIENCES, CAS, priority 2009, published 2010).

Data set [1] deals with Huh-7 hepatoma cells (p53 mutant). The data set can be described thus: MTT cell viability assay, Huh-7. It counts as cell-based. As to conditions: Homo sapiens, Huh-7 (p53 mutant), 48 h. The protocol: (§1) The effects of ART derivatives on the viability of the aforementioned cells may be determined using the MTT assay. Briefly, 2,000 cells per well were plated in triplicate in 96-well plates. After a 24-h incubation, the cells may be treated with varying concentrations of ART derivatives (0, 1, 5, 10, 25, 50, and 100 μmol/L) for 48 h. The MTT assay may be performed according to the manufacture's instruction and the resultant formazan crystals may be dissolved in DMSO (100 μL). The absorbance may be then recorded at 540 nm. The effects of ART derivatives on cell viability may be assessed by comparing the percent cell viability of the treated cells with the vehicle (DMSO)-treated control cells, which may be arbitrarily assigned at 100% viability. The experiment may be repeated thrice under the same conditions.

Data set [2] deals with OVCAR-3 ovarian carcinoma cells. The data set can be described thus: MTT cell viability assay, OVCAR-3. It counts as cell-based. As to conditions: Homo sapiens, OVCAR-3, 48 hrs.
Text: Human ovarian IOSE144 (immortalized non-tumorigenic human ovarian surface epithelial cells) and ovarian carcinoma (A2780 and OVCAR-3) cells that may be obtained from the American Type Culture Collection (ATCC, Manassas, Va.) are gifts from Dr. Jing Fang (Institute for Nutritional Sciences, Shanghai, China). All cells may be cultured according to the ATCC instructions. The compounds (ARS, ART, ARM and DHA) may be dissolved in DMSO (<0.1%, final concentration).
as §1

The subject of a further data set is Hep3B cells. The data set can be described thus: Annexin V-FITC apoptosis assay, Hep3B. It counts as cell-based, human. The protocol:
(§2) ART- and DHA-induced apoptosis alone or in combination with gemcitabine in HepG2 and Hep3B cells or in combination with carboplatin in ovarian cancer cells may be determined by flow cytometry using the Annexin V-FITC Apoptosis Detection kit following the manufacturer's instructions. Briefly, 2×10^5 cells may be treated with ART and DHA ([…]) or 10 μg/L gemcitabine for 48 h. The cells may then be harvested, washed in PBS, and incubated with Annexin V and propidium iodide for staining in binding buffer at room temperature for 10 min in the dark. The stained cells may be analyzed using the FACSAria instrument.

For the next data set, the system named is HepG2 cells. The data set can be described thus: Annexin V-FITC apoptosis assay, HepG2. It counts as cell-based, human. The method, then:
as §2

A further data set deals with A2780 cells. The data set can be described thus: Annexin V-FITC apoptosis assay, A2780. As to conditions: A2780, 50 μM, 24 hrs. It counts as cell-based, human. The protocol: (§3) ART- and DHA-induced apoptosis alone or in combination with gemcitabine in HepG2 and Hep3B cells or in combination with carboplatin in ovarian cancer cells may be determined by flow cytometry using the Annexin V-FITC Apoptosis Detection kit following the manufacturer's instructions. […] The cells may then be harvested, washed in PBS, and incubated with Annexin V and propidium iodide for staining in binding buffer at room temperature for 10 min in the dark. The stained cells may be analyzed using the FACSAria instrument.

For a further data set, the system named is OVCAR-3 xenograft tumors. The data set is described as follows: OVCAR-3 xenograft model in nude mice. It counts as in vivo. To be noted: 5 days/week. The protocol:
(§4) Four to six week old female athymic nude mice (BALB/c, nu/nu) may be purchased from Shanghai Experimental Animal Center (Shanghai, China). Animal studies are approved by the Institute for Nutritional Sciences. The tumor xenograft model may be established as follows. Briefly, A2780 and OVCAR-3 cells may be harvested and re-suspended in serum-free RPMI 1640 medium containing 20% (v/v) Matrigel (BD Biosciences, Bedford, Mass., USA). Aliquots of cells (˜5×10^6 cells/0.2 ml) may be injected subcutaneously into the left inguinal area of the mice. The tumor growth and body weight of the mice may be monitored every other day. Tumor mass may be determined. Mice bearing palpable tumors (˜70 mg) may be randomly divided into treatment and control groups n=5 mice/group). CBP may be dissolved in saline, and DHA may be dissolved in cremophor EL:ethanol:saline (5:5:90, v/v/v). DHA may be administered via i.p. injection at doses of 10 and 25 mg/kg/5 days/week for 3 weeks) alone or combined with CBP (at a single dose of 120 mg/kg, once on day 0). The control group receives saline only. Mice may be killed on day 18. Tumors may be carefully excised, trimmed of extraneous fat or connective tissue, and homogenized in RIPA buffer (100 mg tumor tissue/1 ml RIPA) and prepared for immunoblotting analysis as described above.

The subject of a further data set is OVCAR-3 cells. The data set can be described thus: Annexin V-FITC apoptosis assay, OVCAR-3. It counts as cell-based, human. As to conditions: for increase in apoptosis versus control: 24 hrs. The protocol:
as §3

The next data set has as its system A2780 xenograft tumors. It counts as in vivo. As to conditions: for tumor growth inhibition: A2780 xenograft, 5 days/week. The protocol:
as §4, with “Briefly, A2780 and OVCAR-3 cells may be harvested and re-suspended in serum-free RPMI 1640 medium containing 20% (v/v) Matrigel (BD Biosciences, Bedford, Mass., USA).” left out

The next data set relates to ovarian cancer cells. The data set is described as follows: MTT cell viability assay, ovarian cancer cells (line not specified). To be noted: Homo sapiens, 48 hrs, read-out: inhibition of viability. It counts as cell-based. The method, then: as §1
Background: Tetrazolium dyes change colour on reduction, which living cells bring about.

Setting [3] is: 1 μmol/L, 48 h (0 μmol/L: 0.8%).

Broadly, the IC20 is the point of the concentration-response curve where the effect stands at 20%. The term IC50 denotes the concentration at which inhibition is half-maximal. The low end stands for greater potency in that assay, the high end for weaker potency in that assay. The term IC80 denotes the point of the concentration-response curve where the effect stands at 80%. A lower IC80 goes with greater potency.

Read-outs that look alike come from different tables or passages of the source.

Take `C[C@@H]1CC[C@H]2[C@@H](C)C(=O)O[C@@H]3O[C@@]4(C)CC[C@@H]1[C@]32OO4` [ART, artemisinin]: the IC20 in [1] turned out to be 0.7 µM; in data set [2] it was 0.46 µM. Also, the IC50 in data set [1] is 8.9 µM; in data set [2], 6.86 µM. Moreover, the IC80 in data set [1] stood at 115 µM; in [2], 103 µM. In addition, the apoptotic cells worked out at 2.25% in the data set with Hep3B cells (setting [3]); 2.65% with Hep3B cells (10 μmol/L, 48 h); 4.8% with Hep3B cells (25 μmol/L, 48 h); 25.3% in the data set on Hep3B cells (50 μmol/L, 48 h); 9% in the data set on HepG2 cells (HepG2, 1 μmol/L, 48 h (0 μmol/L: 7%)); 14.95% with HepG2 cells (HepG2, 10 μmol/L, 48 h). Moreover, the apoptotic cells in the data set on HepG2 cells (HepG2, 25 μmol/L, 48 h) came out at 15.45%; with HepG2 cells (HepG2, 50 μmol/L, 48 h), 16.45%.
As for `C[C@H]1[C@@H](O)O[C@@H]2O[C@@]3(C)CC[C@H]4[C@H](C)CC[C@@H]1[C@@]24OO3` [DHA, dihydroartemisinin], the “increase in apoptosis versus control” value in the data set on A2780 cells is 17 fold; in the data set on OVCAR-3 cells (OVCAR-3, 25 μM), 18 fold; in the data set with OVCAR-3 cells (OVCAR-3, 50 μM), 22 fold. Moreover, the tumor growth inhibition amounted to 14% with OVCAR-3 xenograft tumors (DHA 10 mg/kg i.p.); 37% in the data set on OVCAR-3 xenograft tumors (DHA 25 mg/kg i.p.); 24% in the data set on A2780 xenograft tumors (DHA 10 mg/kg i.p., vs saline control); 41% with A2780 xenograft tumors (DHA 25 mg/kg i.p.). In the data set on OVCAR-3 cells (OVCAR-3, 24 hrs, DHA 1 μM, CBP 500 μM, alone or combined), the “rate of apoptosis (control regarded as 100%)” value amounted to 266%. In addition, the IC20 in [1] was determined as 0.7 µM; in data set [2] it was 0.56 µM. The results for the IC50 in data set [1] and in [2] were 9.6 µM and 6.58 µM, respectively. The IC80 worked out at 131 µM in [1] and 77.4 µM in data set [2]. The apoptotic cells in the data set on Hep3B cells (setting [3]) is on record as 2.15%; in the data set on Hep3B cells (10 μmol/L, 48 h), 12.9%; in the data set on Hep3B cells (25 μmol/L, 48 h), 28.75%; in the data set with Hep3B cells (50 μmol/L, 48 h) it was 31.05%. Also, in the data set on A2780 xenograft tumors (mice bearing A2780 or OVCAR-3 xenografts), the “host toxicity based on observation of body weight” value is “No other host toxicities are observed”. The cytotoxicity at 1 µM in the data set with ovarian cancer cells (1 μM) was 24%. Also, in the data set on ovarian cancer cells (500 μM), the cytotoxicity at 500 µM came out at 95%.
